The values that follow come from patent US20040171795A1, “Novel peptides” (priority 2000, published 2004).

One data set has as its system Vero cell. The data set is described as follows: Storage stability of the complex with nucleic acid (luciferase activity). In kind it is cell-based, monkey. Conditions: luciferase-expressing plasmid 2 μg/mL, peptide 5 μM; reagents per attached protocol. The method, then: Luciferase-expressing plasmid was introduced in Vero cell in accordance with the procedure described in Example 9 by using the opti-MEM prepared to have a concentration of the luciferase-expressing plasmid prepared in Example 7 of 2 μg/mL and a concentration of the peptide of SEQ ID NO:4 prepared in Example 1 of 5 μM to thereby measure the luciferase activity. The opti-MEM containing plasmid and peptide used were the one which had been prepared immediately before the gene introduction, and the one which had been prepared 1 week (7 days) in advance and stored at 4° C.
For the purpose of reference, gene-introducing activity of Lipofectin and LipofectAMINE 2000 (manufactured by Life Technologies Oriental), which are commercially available plasmid-introducing agents, were also evaluated by mixing these reagent with luciferase-expressing plasmid in accordance with the attached protocol, and evaluating their gene-introducing activity after storing at 4° C. for 1 week.

The nature of data set [1]: Measurement of CD spectrum. The class given is physicochemical. Conditions: aqueous solution solely containing an inorganic salt, pH 7, 35° C. The method, then: The peptide dissolved in 10 mM phosphate buffer (pH=7) containing 50 mM NaCl was evaluated for its CD spectrum in the presence and in the absence of 5 mM SDS by using a circular dichroism spectrophotometer (J-500A, manufactured by JASCO). The cell length was 1 mm. The measurement was conducted at 35° C. for 6 times in total. FIGS. 7 to 9 are respectively views showing mean residue ellipticity in CD spectroscopy of the peptide of SEQ ID NO:1, the peptide of SEQ ID NO:4 and the peptide of SEQ ID NO:16. As evident in FIGS. 7 to 9, the mean residue ellipticity obtained in the presence of SDS was the so called W curve and local minimums were found in the areas at the wavelength of 205 to 210 nm and 220 to 225 nm, and α-helix structure was thereby confirmed.

Data set [2] has as its system cell (Vero, T24 or A549 of Example 9; not given). Put plainly: Nucleic acid-introducing ability, luciferase-expressing plasmid (procedure of Example 9). As to conditions: class of fluorescent count per 1 mg of protein per 1 second; highest of peptide 1.25, 2.5, 5 μM; plasmid 1 μg/mL. In kind it is cell-based. An excerpt: A cell line established from monkey kidney (Vero cell) and a human bladder cancer cell (T24 cell) purchased from American Type Culture Collection (ATCC) and human lung cancer cell (A549 cell) purchased from Dainippon Pharmaceutical were inoculated on a 24 well culture plate (manufactured by NALGEN NUNC) at 1×10^5 cells/well. Vero cell and A549 cell were cultivated in DMEM (manufactured by Life Technologies Oriental) supplemented with 10% fetal bovine serum (hereinafter referred to as FBS, manufactured by NICHIREI), and T24 cell was cultivated in McCoy's 5a (manufactured by Life Technologies Oriental) supplemented with 10% FBS in 5% CO2 atmosphere at 37° C. for 24 hours. After removing the medium, opti-MEM (manufactured by Life Technologies Oriental) prepared to have the concentration of the luciferase-expressing plasmid prepared in Example 7 of 1 μg/mL and the concentration of the peptide prepared in Example 1 of 1.25, 2.5, or 5 μM was added, and the cells were cultivated for 5 hours. Next, in the case of Vero cell and A549 cell, the culture medium was replaced with DMEM supplemented with 10% FBS, and in the case of T24 cell, the medium was replaced with McCoy's 5a supplemented with 10% FBS, and cultivation was continued in 5% CO2 atmosphere and at 37° C. for another 24 hours. The luciferase activity expressed in the cell was then measured by the method instructed in luciferase assay system (manufactured by Promega). To be more specific, the cells were washed with phosphate-buffered saline (hereinafter referred to as PBS, manufactured by SIGMA), and the cells were lyzed with Passive Lysis Buffer attached to the kit. 20 μL of this cell lysate and 100 μL of the Luciferase Assay Reagent II attached to the kit was added to a fluorescence-measuring plate (Microlite™ 1 plate, manufactured by Dynatech), and after mixing, fluorescence was measured for 1 second by using a multilabel counter (ARVO™ SY1420 MULTILABEL COUNTER, manufactured by Wallac Beltold.
Concentration of the protein in the cell lysate was measured by mixing 8 μL of the cell lysate and 200 μL of the protein assay solution (manufactured by Biorad) with 792 μL of ultrapure water in a disposable cuvette (UV fluorescent cuvette A204X, manufactured by Funakoshi), allowing the mixture to stand for 5 minutes at room temperature, and measuring the absorption at 595 nm with a spectrophotometer (DU640, manufactured by Beckman). Bovine serum albumin (BSA) was used for the standard protein. By using the thus obtained results, count per 1 second per 1 mg of protein of the cell lysate was calculated to thereby use the count as the luciferase activity, and the highest count in the three conditions of different peptide concentration was designated the gene-introducing ability of the peptide.
It is to be noted that the nucleic acid-introducing ability was classified as described below on the bases of the fluorescent count per 1 mg of protein per 1 second (cps/mg protein).

Data set [3] in a line: Affinity for phosphatidyl serine (EIA, inhibition of human Factor VIII binding). As to conditions: class of IC50 for inhibiting human Factor VIII binding, 5% BSA. The method, then:
The specific affinity of the peptide for phosphatidyl serine was evaluated by measuring activity of the peptide for inhibiting the binding of the human Factor VIII to phosphatidyl serine by using human Factor VIII which is known to bind to phosphatidyl serine but not to phosphatidyl choline in the presence of serum albumin. To be more specific, 100 μL of ethanol solution containing 10 μg/mL of phospholipids at a phosphatidyl serine (manufactured by SIGMA): phosphatidyl choline (manufactured by SIGMA) ratio of 3:7 was added to the wells of a 96 well plate (Immulon I, manufactured by Dynatech), and exsiccated by using a centrifugal evaporator (EC-95C, manufactured by Sakuma Seisakusho) at 40° C. for 40 minutes. 200 μL each of TBS (10 mM Tris-HCl (pH 7.4) containing 1% bovine serum albumin (BSA Fraction V, hereinafter referred to as BSA, manufactured by Seikagaku Corporation) and 0.9% (W/V) NaCl solution were added to each well, and the wells were blocked by allowing the plate to stand at 37° C. for 2.5 hours. After washing the plate with water, 100 μL of TBS solution supplemented with 5% BSA mixed with human Factor VIII (manufactured by American Diagnostica) at a final concentration 1 μg/mL and the peptide of predetermined dose prepared in Example 1 was added to each well, and the reaction was allowed to take place at 4° C. for 24 hours.
After the completion of the reaction, the human Factor VIII that became bound to the phosphatidyl serine was measured by enzyme immunoassay (EIA) in accordance with the general procedure described in a book (“Enzyme Immunoassay (3rd ed.)”, Eiji Ishikawa et al., Igaku-Shoin, 1987). To be more specific, the measurement was conducted by using anti-human Factor VIII mouse monoclonal antibody (ESH8, manufactured by American Diagnostica) for the primary antibody, horseradish peroxidase-labeled anti-mouse IgG antibody (P0260, manufactured by Daco) for the secondary antibody, and tetramethylbenzidine for the chromogenic substrate, and measuring the absorption at a wavelength of 450 nm by using a reference wavelength of 630 nm on a spectrophotometer (NJ-2100, manufactured by Intermed).
Intensity of the affinity of the peptide for the phosphatidyl serine was evaluated by using the value obtained by subtracting the absorption of the well having no human Factor VIII added thereto from the absorption of the well having only the human Factor VIII added thereto as the control value (100%), and designating the peptide concentration at which the value 0.5 was obtained when the value obtained by subtracting the absorption of the well having only the peptide added thereto from the absorption of the well having a mixture of the human Factor VIII and the peptide added thereto were divided by the control value as the IC50 value, and evaluating the intensity to be ++ when the IC50 value was up to 1 μM, and +when the intensity was more than 1 μM but not more than 10 μM. It is to be noted that the specific affinity was evaluated to be none when the intensity was 10 μM or more.

The nature of data set [4]: Measurement of turbidity in BSA. The class given is physicochemical. As to conditions: BSA 1%, peptide 50 μM, absorbance at 600 nm. The method, then: The solutions were evaluated for their absorbance at a wavelength of 600 nm by using a spectrophotometer (DU640, manufactured by Beckman).

With “SEQ ID NO: 4: peptide of SEQ ID NO:1 with one or two locations substituted in the 18 amino acid sequence (TRYLRIHPRSWLHQIALRLRYLRIHPRSWLHQIALRS; synthetic peptide using an automatic peptide synthesizer)”, the “gene-introducing activity after storing the complex at 4° C. for 1 week, relative to freshly prepared complex” value in the data set on Vero cell was “substantially equivalent”. In data set [1], the “α-helix structure in CD spectrum in the absence of SDS” value is “do not take α-helix structure”. Besides, the Nucleic acid-introducing ability in data set [2] is reported as 4+ (10,000,000 or more).
For orientation: IC50 means the point on the concentration scale where inhibition reaches its midpoint. With “SEQ ID NO: 10: peptide of SEQ ID NO:1 with one or two locations substituted in the 18 amino acid sequence (TRSLRIHPRSWVHQIALRLRSLRIHPRSWVHQIALRS; synthetic peptide using an automatic peptide synthesizer)”, the half-maximal inhibitory concentration (IC50) in data set [3] fell in the range of 1000 to 10000 nM. Moreover, the “OD 600” value in data set [4] is on record as 0.01>. The Nucleic acid-introducing ability in data set [2] is reported as 3+ (1,000,000 to less than 10,000,000).
Taken in the same sequence, the figures for “SEQ ID NO: 8: peptide of SEQ ID NO:1 with one or two locations substituted in the 18 amino acid sequence (TRYLRIHPKSWVHQIALRLRYLKIHPRSWVHQIALRS; synthetic peptide using an automatic peptide synthesizer)” were 1000 to 10000 nM, 0.01> and 3+ (1,000,000 to less than 10,000,000).
Take “SEQ ID NO: 6: peptide of SEQ ID NO:1 with one or two locations substituted in the 18 amino acid sequence (TRYLRIHPRSWVHNIALRLRYLRIHPRSWVHNIALRS; synthetic peptide using an automatic peptide synthesizer)”: the IC50 in data set [3] is < 1000 nM. In addition, in data set [4], the “OD 600” value was 0.01>. Besides, the Nucleic acid-introducing ability in data set [2] is 2+ (100,000 to less than 1,000,000).
With “SEQ ID NO: 15: peptide of SEQ ID NO:1 with one or two locations substituted in the 18 amino acid sequence (TRYLRIRPRSWVRQIALRLRYLRIRPRSWVRQIALRS; synthetic peptide using an automatic peptide synthesizer)”, the half-inhibitory concentration (IC50) in data set [3] is < 1000 nM. Further, in data set [4], the “OD 600” value was 0.01>. Further, the Nucleic acid-introducing ability in data set [2] is reported as 2+ (100,000 to less than 1,000,000).
In the case of “SEQ ID NO: 17: peptide of SEQ ID NO:1 with one or two locations substituted in the 18 amino acid sequence (TRSLRIHPRLWVHQIALRLRSLRIHPRLWVHQIALRS; synthetic peptide using an automatic peptide synthesizer)”, in data set [3], the IC50 is < 1000 nM. For the same substance, the “OD 600” value in data set [4] is 0.01>. Further, in data set [2], the Nucleic acid-introducing ability is given as 2+ (100,000 to less than 1,000,000).
The substance “SEQ ID NO: 11: peptide of SEQ ID NO:1 with one or two locations substituted in the 18 amino acid sequence (TRYLRIHPRLWVHQIALRLRYLRIHPRLWVHQIALRS; synthetic peptide using an automatic peptide synthesizer)” came in with an IC50 in data set [3] of 1000 to 10000 nM. Further, the “OD 600” value in data set [4] was 0.01>. Further, the Nucleic acid-introducing ability in data set [2] is 3+ (1,000,000 to less than 10,000,000).
Consider “SEQ ID NO: 5: peptide of SEQ ID NO:1 with one or two locations substituted in the 18 amino acid sequence (TRFLRIHPRSWVHQIALRLRFLRIHPRSWVHQIALRS; synthetic peptide using an automatic peptide synthesizer)”, for which the IC50 in data set [3] was < 1000 nM. For the same substance, in data set [4], the “OD 600” value is 0.01>. Also, the Nucleic acid-introducing ability in data set [2] is on record as 2+ (100,000 to less than 1,000,000).
Taken in the same sequence, the figures for “SEQ ID NO: 3: peptide of SEQ ID NO:1 with one or two locations substituted in the 18 amino acid sequence (TRYLRIHPRSWVHQIRLRLRYLRIHPRSWVHQIRLRS; synthetic peptide using an automatic peptide synthesizer)” were < 1000 nM, 0.01> and 2+ (100,000 to less than 1,000,000).
